pIC50: −log10 of the molar value.
Columns and labels:
Assay type in all cases: cell-based
MCF-7 cells = experiment: Breast Cancer Cell Viability Assay (MCF7 Viability Assay); conditions: 5 days' compound exposure, CellTiter-Glo; for pIC50: Homo sapiens, MCF7, 120 h
Method in brief: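 MCF-7 cells, 320 per well in RPMI with 10% FBS and 20 mM HEPES, adhered overnight, then exposed 5 days to an eleven-point semilog dilution (final 0.3–0.000003 μM). CellTiter-Glo luminescence; % viability relative to untreated cells after subtracting cell-free background.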

ER-α [1] = biological target: T1, ER-α (Homo sapiens, UniProt P03372); experiment: ER-α In Cell Western Assay (ER1D5); conditions: MCF-7 cells, ER1D5 antibody, 4 or 24 hr post compound addition, read-out: ER In-Cell Western Assay (ER1D5); for Emax: MCF7, Max Response; for DC50: IC50
T1 construct: endogenous in cells; host or cells: MCF-7
T1 sequence (P03372 1-595): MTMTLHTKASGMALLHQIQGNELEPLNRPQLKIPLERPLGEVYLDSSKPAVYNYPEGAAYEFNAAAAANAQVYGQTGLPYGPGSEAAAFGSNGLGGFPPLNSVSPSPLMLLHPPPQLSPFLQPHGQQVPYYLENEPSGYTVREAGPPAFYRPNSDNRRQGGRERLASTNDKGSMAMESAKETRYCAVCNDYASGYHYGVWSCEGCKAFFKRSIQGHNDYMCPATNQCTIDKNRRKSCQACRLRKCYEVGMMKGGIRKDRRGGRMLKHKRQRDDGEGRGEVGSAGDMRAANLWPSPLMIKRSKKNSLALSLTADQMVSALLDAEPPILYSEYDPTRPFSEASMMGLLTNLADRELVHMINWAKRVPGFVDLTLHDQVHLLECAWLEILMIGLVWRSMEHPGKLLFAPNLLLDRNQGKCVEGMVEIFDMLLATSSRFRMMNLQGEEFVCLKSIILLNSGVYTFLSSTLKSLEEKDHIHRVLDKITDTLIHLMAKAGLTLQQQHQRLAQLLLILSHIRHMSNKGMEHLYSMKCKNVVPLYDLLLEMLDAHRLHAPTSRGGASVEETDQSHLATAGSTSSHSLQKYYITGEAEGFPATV
Description: MCF-7 cells were adjusted to a concentration of 200,000 cells per mL in RPMI containing 10% charcoal-stripped FBS and 20 mM HEPES. 16 microliters of the cell suspension (3200 cells) was added to each well of a poly-D-lysine 384 well plate, and the cells were incubated overnight to allow the cells to adhere. The following day an eleven point, serial semilog dilution of each compound was added to the cells in 16 μL at a final concentration ranging from 0.3-0.000003 μM. At 4 or 24 hr post compound addition, the cells were fixed (10% formalin in PBS) for 20 minutes. Cells were permeabalized in PBS 0.1% Triton and blocked with LICOR blocking buffer (50 μl/well, 90′). The wells were then incubated overnight at 4° C. with ER1D5 (Santa Cruz Biotechnology) diluted 1:100 in LICOR blocking buffer/0.1% Tween-20. Wells which were treated with blocking buffer with Tween but no antibody were used as a background control. Wells were washed with 0.1% Tween-20/PBS and then incubated in goat anti-mouse IRDye™ 800CW (LICOR Inc.; 1:1000) and DRAQ5 DNA dye (1:2000 for 2 mM stock) diluted in LICOR blocking buffer containing 0.1% Tween-20 and 0.01% SDS for 60 minutes. Cells were washed (50 μl/well, 5′ each) in 0.1% Tween-20/PBS. Plates were scanned on a LICOR Odyssey infrared imaging system. Integrated intensities in the 800 nm channel and 700 nm channel were measured to determine levels of ER and DNA respectively. Percent ER levels were determined as follows: (Integrated intensity 800 nm sample/integrated intensity 700 nm sample)/(Integrated intensity 800 nm untreated cells/integrated intensity 700 nm untreated cells)×100=% ER levels.

ER-α [2] = biological target: T1, ER-α; experiment: ER-α in Cell Western Assay (SP1); conditions: MCF-7 cells, SP1 rabbit monoclonal Ab, 4 or 24 hr post compound addition, read-out: ER In-Cell Western Assay (SP1); for Emax: MCF7, Max Response; for DC50: IC50
Method in brief: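 MCF-7 cells in charcoal-stripped FBS medium treated with 11-point semilog dilutions (0.3–0.000003 μM final) for 4 or 24 hr, then fixed and immunostained with SP1 anti-ER antibody. ER signal (800 nm) normalized to DRAQ5 DNA signal (700 nm) and expressed as % of untreated cells.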

Row | SMILES | pIC50 (MCF-7 cells) | Emax (ER-α [1]) | DC50 (ER-α [1]) | Emax (ER-α [2]) | DC50 (ER-α [2]) | MCF7 Viability Assay Max Response (MCF-7 cells)
1 | CC1=C(c2cccc(O)c2)[C@H](c2ccc(OC[C@H](C)N3CC[C@@H](C)C3)cc2)Oc2ccc(O)cc21 (single isomer, unassigned) [Example 2a] | ≥ 9.00 | ≥ 65% | ≤ 1 nM | ≥ 85% | ≤ 1 nM | ++ (++ = a single % value ≧50%)
2 | CC1=C(c2cccc(O)c2)C(c2ccc(OCCN3CC[C@H](C)C3)cc2)Oc2ccc(O)cc21 (stereo partly drawn) [Example 11, 3-(3-Hydroxyphenyl)-4-methyl-2-(4-(2-((S)-3-methylpyrrolidin-1-yl)ethoxy)phenyl)-2H-chromen-6-ol] | ≥ 9.00 | 40 to 65% | ≤ 1 nM | 60 to 85% | ≤ 1 nM | ++ (++ = a single % value ≧50%)
3 | CCN(CC)CCOc1ccc(C2Oc3ccc(O)cc3C(C)=C2c2cccc(O)c2)cc1 (stereo not drawn) [Example 5, 2-(4-(2-(Diethylamino)ethoxy)phenyl)-3-(3-hydroxyphenyl)-4-methyl-2H-chromen-6-ol] | ≥ 9.00 | < 40% | > 1 nM | < 60% | ≤ 1 nM | ++ (++ = a single % value ≧50%)
4 | CC1=C(c2cccc(O)c2)C(c2ccc(OC[C@H](C)N3CC[C@H](C)C3)cc2)Oc2ccc(O)cc21 (stereo partly drawn) [Example 12, 3-(3-Hydroxyphenyl)-4-methyl-2-(4-((S)-2-((S)-3-methylpyrrolidin-1-yl)propoxy)phenyl)-2H-chromen-6-ol] | ≥ 9.00 | 40 to 65% | ≤ 1 nM | 60 to 85% | ≤ 1 nM | ++ (++ = a single % value ≧50%)
5 | CC1=C(c2ccc(F)cc2)C(c2ccc(OCCN3CCCC3)cc2)Oc2ccc(O)cc21 (stereo not drawn) [Example 55, 3-(4-Fluorophenyl)-4-methyl-2-(4-(2-(pyrrolidin-1-yl)ethoxy)phenyl)-2H-chromen-6-ol] | < 9.00 | 40 to 65% | > 1 nM | 60 to 85% | ≤ 1 nM | ++ (++ = a single % value ≧50%)
6 | CC1=C(c2cccc(O)c2)C(c2ccc(OC[C@H](C)N3CC[C@@H](C)C3)cc2)Oc2ccc(O)cc21 (mixture of isomers) [Example 2, 3-(3-Hydroxyphenyl)-4-methyl-2-(4-((S)-2-((R)-3-methylpyrrolidin-1-yl)propoxy)phenyl)-2H-chromen-6-ol] | ≥ 9.00 | ≥ 65% | ≤ 1 nM | ≥ 85% | ≤ 1 nM | ++ (++ = a single % value ≧50%)
7 | CNCCOc1ccc(C2Oc3ccc(O)cc3C(C)=C2c2cccc(O)c2)cc1 (stereo not drawn) [Example 3, 3-(3-Hydroxyphenyl)-4-methyl-2-(4-(2-(methylamino)ethoxy)phenyl)-2H-chromen-6-ol] | ≥ 9.00 | < 40% | ≤ 1 nM | < 60% | ≤ 1 nM | ++ (++ = a single % value ≧50%)
8 | CC1=C(c2cccc(O)c2)C(c2ccc(OCCN3CCCCC3)cc2)Oc2ccc(O)cc21 (stereo not drawn) [Example 9, 3-(3-Hydroxyphenyl)-4-methyl-2-(4-(2-piperidylethoxy)phenyl)-2H-chromen-6-ol] | ≥ 9.00 | 40 to 65% | ≤ 1 nM | 60 to 85% | ≤ 1 nM | ++ (++ = a single % value ≧50%)
9 | CC1=C(c2cccc(O)c2)C(c2ccc(OCCN3CCCC3)cc2F)Oc2ccc(O)cc21 (stereo not drawn) [Example 34, 2-(2-Fluoro-4-(2-(pyrrolidin-1-yl)ethoxy)phenyl)-3-(3-hydroxyphenyl)-4-methyl-2H-chromen-6-ol] | ≥ 9.00 | 40 to 65% | ≤ 1 nM | 60 to 85% | ≤ 1 nM | ++ (++ = a single % value ≧50%)
10 | CC1=C(c2ccc(F)cc2)C(c2ccc(OC[C@H](C)N3CC[C@@H](C)C3)cc2)Oc2ccc(O)cc21 (mixture of isomers) [Example 30, 3-(4-Fluorophenyl)-4-methyl-2-(4-((S)-2-((R)-3-methylpyrrolidin-1-yl)propoxy)phenyl)-2H-chromen-6-ol] | ≥ 9.00 | ≥ 65% | ≤ 1 nM | 60 to 85% | ≤ 1 nM | ++ (++ = a single % value ≧50%)

More lines, main results first:

Row | pIC50 (MCF-7 cells) | Emax (ER-α [1]) | DC50 (ER-α [1]) | Emax (ER-α [2]) | DC50 (ER-α [2]) | SMILES | MCF7 Viability Assay Max Response (MCF-7 cells)
11 | < 9.00 | 40 to 65% | > 1 nM | 60 to 85% | > 1 nM | CC1=C(c2ccc(S(C)(=O)=O)cc2)C(c2ccc(OC[C@H](C)N3CC[C@@H](C)C3)cc2)Oc2ccc(O)cc21 (stereo partly drawn) [Example 59, 4-Methyl-2-(4-((S)-2-((R)-3-methylpyrrolidin-1-yl)propoxy)phenyl)-3-(4-(methylsulfonyl)phenyl)-2H-chromen-6-ol] | ++ (++ = a single % value ≧50%)
12 | ≥ 9.00 | ≥ 65% | ≤ 1 nM | ≥ 85% | ≤ 1 nM | CC1=C(c2cccc(F)c2)C(c2ccc(OC[C@H](C)N3CC[C@@H](C)C3)cc2)Oc2ccc(O)cc21 (stereo partly drawn) [Example 32, 3-(3-Fluorophenyl)-4-methyl-2-(4-((S)-2-((R)-3-methylpyrrolidin-1-yl)propoxy)phenyl)-2H-chromen-6-ol] | + (+ = a single % value <50%)
13 | < 9.00 | ≥ 65% | > 1 nM | 60 to 85% | > 1 nM | CC1=C(c2ccc(C)c(O)c2)C(c2ccc(OC[C@H](C)N3CC[C@@H](C)C3)cc2)Oc2ccc(O)cc21 (stereo partly drawn) [Example 39, 3-(3-Hydroxy-4-methylphenyl)-4-methyl-2-(4-((S)-2-((R)-3-methylpyrrolidin-1-yl)propoxy)phenyl)-2H-chromen-6-ol] | ++ (++ = a single % value ≧50%)
14 | ≥ 9.00 | ≥ 65% | ≤ 1 nM | ≥ 85% | ≤ 1 nM | CC1=C(c2ccc(O)cc2)C(c2ccc(OC[C@H](C)N3CC[C@@H](C)C3)cc2)Oc2cc(O)ccc21 (stereo partly drawn) [Example 28, 3-(4-Hydroxyphenyl)-4-methyl-2-(4-((S)-2-((R)-3-methylpyrrolidin-1-yl)propoxy)phenyl)-2H-chromen-7-ol] | ++ (++ = a single % value ≧50%)
15 | < 9.00 | ≥ 65% | > 1 nM | 60 to 85% | > 1 nM | CC1=C(c2ccc(Br)cc2)C(c2ccc(OC[C@H](C)N3CC[C@@H](C)C3)cc2)Oc2ccc(O)cc21 (stereo partly drawn) [Example 54, 3-(4-Bromophenyl)-4-methyl-2-(4-((S)-2-((R)-3-methylpyrrolidin-1-yl)propoxy)phenyl)-2H-chromen-6-ol] | ++ (++ = a single % value ≧50%)
16 | ≥ 9.00 | 40 to 65% | ≤ 1 nM | 60 to 85% | ≤ 1 nM | CC1=C(c2cccc(O)c2)C(c2ccc(OCCN3CCC[C@H]3C)cc2)Oc2ccc(O)cc21 (stereo partly drawn) [Example 20, 3-(3-Hydroxyphenyl)-4-methyl-2-(4-(2-((R)-2-methylpyrrolidin-1-yl)ethoxy)phenyl)-2H-chromen-6-ol] | ++ (++ = a single % value ≧50%)
